From patent US20210393565A1, “PREPARATION FOR USE TO INCREASE THE FORMATION OF ONE OR MORE SPECIALIZED PRO-RESOLVING LIPID MEDIATORS (SPM)” (Evonik Operations GmbH, priority 2018, published 2021) come the findings set out here.

What all share (type): cell-based
The subject of assay [1] is Bacillus megaterium DSM 32963 cells. The assay can be described thus: Lipidometabolomics (UPLC-MS/MS) of culture supernatants with AvailOm, dissolved or as dispersion. The following applies: for Extracellular concentration of PUFA oxygenation product: − bile acids, net after subtraction of cell-free control. An excerpt:
(§1) Bacterial supernatant samples were subjected to lipid extraction using RP-phase solid phase extraction and subsequently analyzed by ultra performance liquid chromatography ESI tandem mass spectrometry (UPLC-MS/MS) according to a published procedure. Under these conditions approximately 40 different LM, including 5-hydroxy-eicosapentaenoic acid 5-HEPE, 8-HEPE, 11-HEPE, 12-HEPE, 15-HEPE, 18-HEPE, 5-hydroxy-eicosatetraenoic acid (5-HETE), 8-HETE, 11-HETE, 12-HETE, 15-HETE, 4-hydroxy-DHA (4-HDHA), 7-HDHA, 13-HDHA, 14-HDHA, 17-HDHA, lipoxin A4 (LXA4), LXB4, resolvin E1 (RvE1), RvE3, resolvin D1-5 (RvD1-5), AT-RvD1, RvD2, protectin D1 (PD1), AT-PD1, maresin 1(MaR1), MaR2, plus 4 fatty acid substrates can be detected with a lower limit of detection of 1 pg.
To investigate if Bacillus megaterium is capable of producing other PUFA oxygenation products in addition to 18-HEPE, a lipidometabolomics screening of supernatants from Bacillus megaterium strain 32963 cultured as in example 4 with AvailOm® was performed, either dissolved or in a dispersion formulation, with or without bile acids. Cell-free preparations of AvailOm® formulations were treated and analyzed in parallel and served as controls for non-enzymatic, spontaneous formation of oxygenation products. Values given in table 6 display net concentrations of products formed, i.e. after subtraction of control values. […] Concentrations of several SPM exceed by far the concentrations of SPM found in human plasma samples, which are typically in a range of ˜20-100 pg/ml. For comparison, human breast milk contains ˜6.000 pg/ml RvE1 and ˜10.000 pg/ml RvD1 [42].

Assay [2] concerns Bacillus megaterium DSM 33296 cells. Put plainly: Lipidometabolomics of culture supernatants with AvailOm dispersion formulation. The following applies: Bacillus megaterium DSM 33296, AvailOm dispersion formulation; net concentration.
Text: as §1
(§2) 47 additional Bacillus megaterium strains sourced from various habitats were screened for their SPM production capacity to determine if this is a general phenomenon of the species Bacillus megaterium and to detect strain-specific differences in types and quantities of SPM being produced. Cells were cultured as detailed in example 4, with dispersion formulation of AvailOm® serving as omega-3 fatty acid source. Cell-free preparations of AvailOm® were treated and analyzed in parallel and served as controls for non-enzymatic, spontaneous formation of oxygenation products. It was observed that all tested strains produced measurable (>1 pg/ml) amounts of various SPM and precursors thereof, that these amounts were hugely different between the strains (up to 2.000 fold), and that concentrations of RvE3 were particularly high (up to 1.3 μg/ml) in most of the strains.
(§3) Values given in table 7 display net concentrations of PUFA oxygenation products formed by two of the top performing strains, Bacillus megaterium DSM 33296 and Bacillus megaterium DSM 33299.

Assay [3] has as its system Bacillus megaterium DSM 33299 cells. Described as above. The following applies: Bacillus megaterium DSM 33299, AvailOm dispersion formulation; net concentration.
Text: as §1, §2, §3

Assay [4] relates to 47 additional Bacillus megaterium strains. The assay can be described thus: Screening of 47 additional strains for SPM production from AvailOm dispersion formulation.
Text: as §1
47 additional Bacillus megaterium strains sourced from various habitats were screened for their SPM production capacity to determine if this is a general phenomenon of the species Bacillus megaterium and to detect strain-specific differences in types and quantities of SPM being produced. Cells were cultured as detailed in example 4, with dispersion formulation of AvailOm® serving as omega-3 fatty acid source. Cell-free preparations of AvailOm® were treated and analyzed in parallel and served as controls for non-enzymatic, spontaneous formation of oxygenation products. […]

Regarding `CC[C@H](O)C(O)/C=C/C=C/C=C\C/C=C\C/C=C\CCCC(=O)O` (stereo partly shown) [RvE3, resolvin E3], the “Extracellular concentration of PUFA oxygenation product” value (from here on “Extracellular concentration”) is 33092 pg/mL in assay [1] (AvailOm dispersion), 1322555 pg/mL in assay [2] and 880739 pg/mL in assay [3]. Further, the “concentration produced, highest among the strains” value in assay [4] is listed as “up to 1.3 μg/ml”.

For the compound `CC/C=C\CC(O)/C=C/C=C\C/C=C\C/C=C\CCCC(=O)O` (stereo not shown) [15-HEPE, 15-hydroxy-eicosapentaenoic acid], the “abundance with dispersion formulation and/or bile acids compared to AvailOm without both (in words)” value in assay [1] was “lower”. Also, the “Extracellular concentration” value in assay [1] (AvailOm) came out at 7536 pg/mL; in assay [2], 256797 pg/mL; in assay [3], 151168 pg/mL.

Take `CC/C=C\C[C@H](O)/C=C/C=C\C/C=C\C=C\[C@@H](O)C/C=C\CCC(=O)O` [RvD5]: the “Extracellular concentration” value in assay [1] (AvailOm dispersion) is 9016 pg/mL; in assay [1] (AvailOm) it was 68 pg/mL; in assay [2], 15079 pg/mL; in assay [3], 34168 pg/mL.

Take “11-hydroxy-eicosapentaenoic acid [11-HEPE]”: the “abundance with dispersion formulation and/or bile acids compared to AvailOm without both (in words)” value in assay [1] is on record as “lower”. Also, the figures for the “Extracellular concentration” value in assay [1] (AvailOm), in assay [2] and in assay [3] were 4659 pg/mL, 124860 pg/mL and 63306 pg/mL, respectively.

For the compound `CC/C=C\C[C@H](O)/C=C\C=C\C/C=C/C=C/C=C/C(O)[C@@H](O)CCC(=O)O` (stereo partly shown) [RvD4], the “Extracellular concentration” value came to 3681 pg/mL in assay [1] (AvailOm), 1986 pg/mL in assay [2] and 2523 pg/mL in assay [3].
